# Test results published in paper PMC7764606 (Cancers, 2020).
# Read-outs that look alike come from different tables or passages of the source.
# Columns and labels:
# recombinant AKR1C3 = target: T1, recombinant AKR1C3 (Homo sapiens, UniProt P42330); assay: Reduction of Dau by recombinant AKR1C3 (UHPLC detection of Dau-ol); type: biochemical; conditions: for reduction of AKR1C3 activity (Dau reduction): Dau 500 µM, relative to DMSO; for Ki: read-out: Ki^app (Morrison equation for tight-binding inhibitors)
# T1 construct: made in house; host or cells: Escherichia coli
# T1 sequence (P42330 1-323): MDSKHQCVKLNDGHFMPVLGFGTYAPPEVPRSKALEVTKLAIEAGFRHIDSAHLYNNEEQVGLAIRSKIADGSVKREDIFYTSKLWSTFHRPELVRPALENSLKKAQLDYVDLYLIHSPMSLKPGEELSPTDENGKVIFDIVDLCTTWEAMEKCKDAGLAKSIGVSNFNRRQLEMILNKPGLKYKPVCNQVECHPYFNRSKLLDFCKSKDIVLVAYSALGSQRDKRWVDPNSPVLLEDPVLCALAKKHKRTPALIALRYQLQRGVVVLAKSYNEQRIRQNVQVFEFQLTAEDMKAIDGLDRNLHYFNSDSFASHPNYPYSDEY
# Method: (§1) Human recombinant CREs (CBR1, AKR1A1, 1B1, 1B10, 7A2, and 1C3) were produced by an Escherichia coli expression system as per methods described previously. For the inhibitory assay, each recombinant enzyme, CBR1 (1 µg), AKR1A1 (1 µg), AKR1B1 (5 µg), AKR1B10 (5 µg), AKR7A2 (3 µg), or AKR1C3 (1.5 µg) was incubated with BTK inhibitors at different concentrations (10 and 50 µM) and the substrate Dau (500 µM). For analysis using the Lineweaver-Burk plot, 1.5 µg of recombinant AKR1C3 was incubated with DMSO or BTK inhibitors (1, 5, and 10 µM) and Dau (200, 400, 600, 800, 1000, and 2000 µM). […] The incubations and further metabolite detection were further performed by using ultra-high-performance liquid chromatography (UHPLC) as per methods described previously.
# recombinant AKR1B10 = tested on: T2, recombinant AKR1B10; assay: Reduction of Dau by recombinant AKR1B10 (UHPLC detection of Dau-ol); type: biochemical, Human; conditions: Dau 500 µM, relative to DMSO
# T2 construct: made in house; host or cells: Escherichia coli
# Method: as §1
# [1] = tested on: T3, AKR1C3 in HCT116-C3 cells; assay: Dau metabolism to Dau-ol in HCT116 cells transiently overexpressing AKR1C3; type: cell-based, human; conditions: 5 h
# T3 construct: expressed in transfected cells; host or cells: HCT116
# Method: (§2) HCT116 cells were seeded (1.25 × 10^5 cells/well) in 24-well plates and cultured for 24 h. For the transient expression of the recombinant human AKR1C3, the cells were transfected with a pCI_AKR1C3 or empty pCI plasmid as control (previously described in a study by Hofman et al.) according to the manufacturer’s instructions (jetPRIME® Transfection Reagent; Polyplus Transfection®, Illkirch, France). For each 24-well plate, a mixture of 0.75 µL of the jetPRIME® Transfection Reagent and 0.25 µg of plasmid was incubated for 10 min at room temperature. Then, polyplexes were added to the HCT116 cells with 0.5 mL of fresh DMEM supplemented with 10% FBS and incubated for 24 h (37 °C, 5% CO2). The expression of recombinant AKR1C3 was verified by western blotting as per methods described previously.
# After transfection of HCT116 cells or seeding of A549 cells (25 × 10^3 cells/well) in 24-well plates for 24 h, the medium was harvested and replaced with DMEM supplemented with 10% FBS containing 1 µM daunorubicin, with or without increasing concentrations (1, 5, and 10 μM) of BTK inhibitors. Cells were incubated (37 °C, 5% CO2) for 2.5 and 5 h (transfected HCT116) or only 5 h (A549). Then, the medium was collected and the cells were lysed in lysis buffer (25 mM Tris, 150 mM NaCl, and 1% Triton X-100, pH 7.8) for 15 min at room temperature. The collected medium was combined with cell lysate for further extraction and analysis of metabolites, as per methods described previously.
# HCT116-EV cells = assay: MTT cell viability, HCT116-EV cells (incl. Chou-Talalay analysis); type: cell-based, human
# Method: as §2
# (§3) Twenty-four hours prior to the experiment, transfected HCT116 cells (8 × 10^3 cells/well) or A549 cells (5 × 10^3 cells/well) were seeded in 96-well plates. The cell culture medium was replaced with fresh medium containing increasing amounts of Dau (final concentrations: 0.01, 0.05, 0.1, 0.25, 0.5, 0.75, 1, and 10 µM) with or without BTK inhibitors (final concentrations: 1, 5, and 10 µM). After 72 h of incubation under standard conditions (37 °C, 5% CO2), cell viability was assessed by MTT (Sigma-Aldrich, Prague, Czech Republic) assay. For this, 50 µL of the MTT solution (3 mg/mL) was added to each well and incubated for 30 min. The supernatant was collected, and the cell monolayers were dissolved in 100 µL of DMSO. The absorbance was measured at 570 and 690 nm by a microplate reader Infinite M200 (Tecan, Salzburg, Austria), and the background values at 690 nm were subtracted from the absorbance obtained at 570 nm. The half-maximal inhibitory concentrations (IC50) were calculated using GraphPad Prism 8.1.2. The drug combination pharmacodynamics were determined by the Chou-Talalay method using the CompuSyn ver. 3.0.1 software (ComboSyn Inc., Paramus, NJ, USA).
# [2] = single oral dose of 140 mg; cited from earlier work
# [3] = tested on: AKR1C3 expression in A549 cells; assay: AKR1C3 protein levels in A549 cells by western blotting; type: cell-based, human; conditions: 1, 5 and 10 µM, 72 h, western blot relative to β-actin
# Method: A549 cells were incubated with DMSO or BTK inhibitors (1, 5, and 10 µM) for 72 h, and then total protein was extracted for analysis of AKR1C3 expression by western blotting (WB) as per methods described previously. A representative WB is shown for IBR (A) and ACA (B) incubations, and bars represent AKR1C3 protein levels as determined by densitometry relative to β-actin (n = 3, mean ± SD). Uncropped images from WB are available in Figure S1 in the Supplementary Materials. On the other hand, HCT116-EV and HCT116-C3 cells were treated with increasing concentrations of IBR (C) and ACA (D) for 72 h, and their viability was assessed by MTT assay. Graphs represent a comparison of the dose-response curves for percentages of cell viability in each cell line (n = 6, mean ± SD).
# A549 cells = assay: MTT cell viability, A549 cells (incl. Chou-Talalay analysis); type: cell-based, human
# Method: as §3
# [4] = BTK-inhibitor 5 µM + Dau 0.25 µM
# [5] = BTK-inhibitor 5 µM + Dau 0.50 µM
smiles,measurement,setting,value
"COc1cccc2c1C(=O)c1c(O)c3c(c(O)c1C2=O)C[C@@](O)(C(C)=O)C[C@@H]3O[C@H]1C[C@H](N)[C@H](O)[C@H](C)O1 [Dau, daunorubicin]",Km,"recombinant AKR1C3; substrate Dau, recombinant AKR1C3, read-out: Km used in the Morrison equation",387 ± 36 µM
"C=CC(=O)N1CCC[C@@H](n2nc(-c3ccc(Oc4ccccc4)cc3)c3c(N)ncnc32)C1 [Ibrutinib, ibrutinib]",inhibition of AKR1B10 activity (Dau reduction),recombinant AKR1B10; 10 µM BTK inhibitor,48.18% ± 2.10%
same,inhibition of AKR1B10 activity (Dau reduction),recombinant AKR1B10; 50 µM BTK inhibitor,74.97% ± 0.87%
same,decrease in AKR1C3 activity (Dau to Dau-ol),[1]; 1 µM BTK inhibitor + 1 µM Dau,29.40% ± 11.55%
same,decrease in AKR1C3 activity (Dau to Dau-ol),[1]; 5 µM BTK inhibitor + 1 µM Dau,45.16% ± 0.86%
same,decrease in AKR1C3 activity (Dau to Dau-ol),[1]; 10 µM BTK inhibitor + 1 µM Dau,60.72% ± 6%
same,Fraction affected (Fa %),HCT116-EV cells; [4],58.13 ± 12.2%
same,Fraction affected (Fa %),HCT116-EV cells; [5],77.56 ± 6.90%
same,Fraction affected (Fa %),HCT116-EV cells; BTK-inhibitor 10 µM + Dau 0.25 µM,58.56 ± 7.79%
same,Fraction affected (Fa %),HCT116-EV cells; BTK-inhibitor 10 µM + Dau 0.50 µM,81.92 ± 4.25%
same,IC50,"HCT116-EV cells; Homo sapiens, 72 h MTT, read-out: IC50 of BTK inhibitor alone (cell viability)",17000 nM
same,mean Cmax,[2],37.1 ng/mL
same,reduction of AKR1C3 activity (Dau reduction),recombinant AKR1C3; 10 µM BTK inhibitor,92.17% ± 3.43%
same,reduction of AKR1C3 activity (Dau reduction),recombinant AKR1C3; 50 µM BTK inhibitor,96.41% ± 1.48%
same,Ki,recombinant AKR1C3; AKR1C3 0.005 mg/mL (0.135 μM),312 nM
same,Ki,recombinant AKR1C3; AKR1C3 0.015 mg/mL (0.405 μM),332 nM
same,Ki,recombinant AKR1C3; AKR1C3 0.030 mg/mL (0.811 μM),354 nM
same,mode of inhibition (Lineweaver-Burk plot),recombinant AKR1C3; recombinant AKR1C3 with increasing Dau,non-competitive/mixed
same,effect on expression (protein levels) of AKR1C3,[3],negligible or absence of effects
same,Fraction affected (Fa %),A549 cells; BTK-inhibitor 1 µM + Dau 0.01 µM,21.92 ± 2.37%
same,Fraction affected (Fa %),A549 cells; BTK-inhibitor 1 µM + Dau 0.25 µM,43.16 ± 2.59%
same,Fraction affected (Fa %),A549 cells; BTK-inhibitor 1 µM + Dau 0.50 µM,71.16 ± 6.46%
same,Fraction affected (Fa %),A549 cells; BTK-inhibitor 1 µM + Dau 0.75 µM,86.63 ± 0.72%
same,Fraction affected (Fa %),A549 cells; BTK-inhibitor 1 µM + Dau 1.00 µM,91.12 ± 0.72%
same,Fraction affected (Fa %),A549 cells; BTK-inhibitor 5 µM + Dau 0.01 µM,33.76 ± 1.79%
same,Fraction affected (Fa %),A549 cells; [4],54.13 ± 5.98%
same,Fraction affected (Fa %),A549 cells; [5],85.67 ± 2.02%
same,Fraction affected (Fa %),A549 cells; BTK-inhibitor 5 µM + Dau 0.75 µM,91.76 ± 0.78%
same,Fraction affected (Fa %),A549 cells; BTK-inhibitor 5 µM + Dau 1.00 µM,94.00 ± 0.28%
